Source: ChEMBL document CHEMBL3612049, “Design, synthesis and molecular docking of salicylic acid derivatives containing metronidazole as a new class of antimicrobial agents” (Bioorg Med Chem, 2015)
Converted amounts (≈) assume the structure as drawn.

Tests used:
Bacillus spizizenii = assay: Antimicrobial activity against Bacillus subtilis ATCC 6633 after 18 hrs by broth microdilution method; assay type: functional; conditions: ATCC 6633, 18 h
Staphylococcus aureus = assay: Antimicrobial activity against Staphylococcus aureus ATCC 6538 after 18 hrs by broth microdilution method; assay type: functional; conditions: ATCC 6538, 18 h
Escherichia coli = assay: Antimicrobial activity against Escherichia coli ATCC 35218 after 18 hrs by broth microdilution method; assay type: functional; conditions: ATCC 35218, 18 h
Pseudomonas aeruginosa = assay: Antimicrobial activity against Pseudomonas aeruginosa ATCC 13525 after 18 hrs by broth microdilution method; assay type: functional; conditions: ATCC 13525, 18 h
[1] = Inhibition of Staphylococcus aureus TyrRS expressed in Escherichia coli BL21 using L-[ring-3,5-3H]-tyrosine preincubated for 10 mins by liquid scintillation counting
[2] = Hemolytic activity in human erythrocytes assessed as hemoglobin release after 3 hrs by spectrophotometric analysis; assay type: ADME, cell-based, Erythrocyte; conditions: read-out: LC50
[3] = Cytotoxicity against human macrophages after 24 hrs by MTT assay; assay type: cell-based, Macrophage

Row | Compound | MIC (Bacillus spizizenii) | MIC (Staphylococcus aureus) | MIC (Escherichia coli) | MIC (Pseudomonas aeruginosa) | IC50 [1] | HC50 at 3 h [2] | CC50 at 24 h [3]
1 | Cc1ncc([N+](=O)[O-])n1CCOC(=O)c1ccccc1OCc1ccc(Cl)c(F)c1 | 3.13 µg/mL (≈ 7.21 µM) | 3.13 µg/mL (≈ 7.21 µM) | 6.25 µg/mL (≈ 14.4 µM) | 6.25 µg/mL (≈ 14.4 µM) | 3.2 µM | > 10 µM | 180 µM
2 | Cc1ncc([N+](=O)[O-])n1CCOC(=O)c1ccccc1OCc1ccc(C(C)C)cc1 | 3.13 µg/mL (≈ 7.39 µM) | 3.13 µg/mL (≈ 7.39 µM) | 6.25 µg/mL (≈ 14.8 µM) | 6.25 µg/mL (≈ 14.8 µM) | 3.3 µM | > 10 µM | 272 µM
3 | Cc1cc(C)cc(COc2ccccc2C(=O)OCCn2c([N+](=O)[O-])cnc2C)c1 | 1.57 µg/mL (≈ 3.83 µM) | 3.13 µg/mL (≈ 7.64 µM) | 6.25 µg/mL (≈ 15.3 µM) | 12.5 µg/mL (≈ 30.5 µM) | 3 µM | > 10 µM | 252 µM
4 | Cc1ncc([N+](=O)[O-])n1CCOC(=O)c1ccccc1OCc1ccc(F)cc1 | 12.5 µg/mL (≈ 31.3 µM) | 12.5 µg/mL (≈ 31.3 µM) | 25 µg/mL (≈ 62.6 µM) | 25 µg/mL (≈ 62.6 µM) | 5.7 µM | > 10 µM | 157 µM
5 | Cc1ncc([N+](=O)[O-])n1CCOC(=O)c1ccccc1OCc1ccccc1C(F)(F)F | 50 µg/mL (≈ 111 µM) | 100 µg/mL (≈ 223 µM) | 100 µg/mL (≈ 223 µM) | 100 µg/mL (≈ 223 µM) | 7.8 µM | > 10 µM | 233 µM
6 | Cc1ncc([N+](=O)[O-])n1CCOC(=O)c1ccccc1OCc1c(F)c(F)c(F)c(F)c1F | 50 µg/mL (≈ 106 µM) | 50 µg/mL (≈ 106 µM) | 100 µg/mL (≈ 212 µM) | 100 µg/mL (≈ 212 µM) | 8 µM | > 10 µM | 236 µM
7 | O=C(N[C@H](CO)[C@H](O)c1ccc([N+](=O)[O-])cc1)C(Cl)Cl [CHLORAMPHENICOL] | 1.57 µg/mL (≈ 4.86 µM) | 1.57 µg/mL (≈ 4.86 µM) | 6.25 µg/mL (≈ 19.3 µM) | 0.78 µg/mL (≈ 2.41 µM) | – | – | –
8 | Cc1ncc([N+](=O)[O-])n1CCOC(=O)c1ccccc1OCc1cccc(Cl)c1 | 6.25 µg/mL (≈ 15 µM) | 6.25 µg/mL (≈ 15 µM) | 12.5 µg/mL (≈ 30.1 µM) | 12.5 µg/mL (≈ 30.1 µM) | 5 µM | > 10 µM | 188 µM
9 | Cc1ncc([N+](=O)[O-])n1CCOC(=O)c1ccccc1OCc1ccc(Cl)cc1 | 12.5 µg/mL (≈ 30.1 µM) | 6.25 µg/mL (≈ 15 µM) | 25 µg/mL (≈ 60.1 µM) | 12.5 µg/mL (≈ 30.1 µM) | 4.8 µM | > 10 µM | 168 µM
10 | Cc1ccc(COc2ccccc2C(=O)OCCn2c([N+](=O)[O-])cnc2C)cc1 | 3.13 µg/mL (≈ 7.92 µM) | 3.13 µg/mL (≈ 7.92 µM) | 12.5 µg/mL (≈ 31.6 µM) | 12.5 µg/mL (≈ 31.6 µM) | 4.7 µM | > 10 µM | 140 µM
11 | Cc1ncc([N+](=O)[O-])n1CCOC(=O)c1ccccc1OCc1ccc(Br)cc1 | 6.25 µg/mL (≈ 13.6 µM) | 6.25 µg/mL (≈ 13.6 µM) | 12.5 µg/mL (≈ 27.2 µM) | 12.5 µg/mL (≈ 27.2 µM) | 4.9 µM | > 10 µM | 198 µM
12 | CC1(C)S[C@@H]2[C@H](NC(=O)Cc3ccccc3)C(=O)N2[C@H]1C(=O)O [PENICILLIN G] | 0.78 µg/mL (≈ 2.33 µM) | 0.78 µg/mL (≈ 2.33 µM) | 6.25 µg/mL (≈ 18.7 µM) | 6.25 µg/mL (≈ 18.7 µM) | – | – | –
13 | Cc1ncc([N+](=O)[O-])n1CCOC(=O)c1ccccc1OCc1cccc(F)c1 | 25 µg/mL (≈ 62.6 µM) | 12.5 µg/mL (≈ 31.3 µM) | 50 µg/mL (≈ 125 µM) | 50 µg/mL (≈ 125 µM) | 6.3 µM | > 10 µM | 124 µM
14 | Cc1ncc([N+](=O)[O-])n1CCOC(=O)c1ccccc1OCc1ccccc1Cl | 6.25 µg/mL (≈ 15 µM) | 6.25 µg/mL (≈ 15 µM) | 6.25 µg/mL (≈ 15 µM) | 12.5 µg/mL (≈ 30.1 µM) | 4.7 µM | > 10 µM | 213 µM
15 | Cc1ncc([N+](=O)[O-])n1CCOC(=O)c1ccccc1OCc1cc(F)c(F)c(F)c1 | 25 µg/mL (≈ 57.4 µM) | 25 µg/mL (≈ 57.4 µM) | 100 µg/mL (≈ 230 µM) | 50 µg/mL (≈ 115 µM) | 6.7 µM | > 10 µM | 267 µM
16 | Cc1ncc([N+](=O)[O-])n1CCOC(=O)c1ccccc1OCc1ccc(F)c(F)c1 | 50 µg/mL (≈ 120 µM) | 25 µg/mL (≈ 59.9 µM) | 100 µg/mL (≈ 240 µM) | 100 µg/mL (≈ 240 µM) | 6 µM | > 10 µM | 256 µM
17 | Cc1ncc([N+](=O)[O-])n1CCOC(=O)c1ccccc1OCc1ccc(Cl)c(Cl)c1 | 0.78 µg/mL (≈ 1.73 µM) | 0.39 µg/mL (≈ 0.866 µM) | 3.13 µg/mL (≈ 6.95 µM) | 1.57 µg/mL (≈ 3.49 µM) | 2.3 µM | > 10 µM | 188 µM
18 | Cc1ncc([N+](=O)[O-])n1CCOC(=O)c1ccccc1OCc1ccc(C(F)(F)F)cc1 | 25 µg/mL (≈ 55.6 µM) | 25 µg/mL (≈ 55.6 µM) | 50 µg/mL (≈ 111 µM) | 50 µg/mL (≈ 111 µM) | 6.3 µM | > 10 µM | 242 µM
19 | Cc1ncc([N+](=O)[O-])n1CCOC(=O)c1ccccc1OCc1ccccc1 | 12.5 µg/mL (≈ 32.8 µM) | 12.5 µg/mL (≈ 32.8 µM) | 25 µg/mL (≈ 65.6 µM) | 50 µg/mL (≈ 131 µM) | 5.6 µM | > 10 µM | 231 µM
20 | Cc1ncc([N+](=O)[O-])n1CCOC(=O)c1ccccc1OCc1cccc(C(F)(F)F)c1 | 100 µg/mL (≈ 223 µM) | 50 µg/mL (≈ 111 µM) | 100 µg/mL (≈ 223 µM) | 100 µg/mL (≈ 223 µM) | 8.3 µM | > 10 µM | 251 µM
21 | Cc1ncc([N+](=O)[O-])n1CCOC(=O)c1ccccc1OCc1ccccc1F | 25 µg/mL (≈ 62.6 µM) | 12.5 µg/mL (≈ 31.3 µM) | 50 µg/mL (≈ 125 µM) | 50 µg/mL (≈ 125 µM) | 6.7 µM | > 10 µM | 155 µM
22 | Cc1ncc([N+](=O)[O-])n1CCOC(=O)c1ccccc1OCc1cc(Cl)ccc1Cl | 0.78 µg/mL (≈ 1.73 µM) | 1.57 µg/mL (≈ 3.49 µM) | 3.13 µg/mL (≈ 6.95 µM) | 6.25 µg/mL (≈ 13.9 µM) | 2.7 µM | > 10 µM | 193 µM
23 | COc1ccc(COc2ccccc2C(=O)OCCn2c([N+](=O)[O-])cnc2C)cc1 | 0.78 µg/mL (≈ 1.9 µM) | 1.57 µg/mL (≈ 3.82 µM) | 6.25 µg/mL (≈ 15.2 µM) | 6.25 µg/mL (≈ 15.2 µM) | 2.9 µM | > 10 µM | 239 µM
24 | Cc1ncc([N+](=O)[O-])n1CCOC(=O)c1ccccc1OCc1cccc(Cl)c1F | 1.57 µg/mL (≈ 3.62 µM) | 3.13 µg/mL (≈ 7.21 µM) | 12.5 µg/mL (≈ 28.8 µM) | 6.25 µg/mL (≈ 14.4 µM) | 2.9 µM | > 10 µM | 190 µM
25 | Cc1ncc([N+](=O)[O-])n1CCOC(=O)c1ccccc1OCc1c(F)cccc1F | 25 µg/mL (≈ 59.9 µM) | 25 µg/mL (≈ 59.9 µM) | 50 µg/mL (≈ 120 µM) | 50 µg/mL (≈ 120 µM) | 6.9 µM | > 10 µM | 277 µM
